Data on two compounds can be found in US8486991B2, “Enantiomerically pure phosphoindoles as HIV inhibitors” (Idenix Pharmaceuticals, Inc., priority 2006, dated 2013).

Data set [1] has as its target T1, CYP2C8 (Homo sapiens, UniProt P10632).
T1 sequence (P10632 1-490): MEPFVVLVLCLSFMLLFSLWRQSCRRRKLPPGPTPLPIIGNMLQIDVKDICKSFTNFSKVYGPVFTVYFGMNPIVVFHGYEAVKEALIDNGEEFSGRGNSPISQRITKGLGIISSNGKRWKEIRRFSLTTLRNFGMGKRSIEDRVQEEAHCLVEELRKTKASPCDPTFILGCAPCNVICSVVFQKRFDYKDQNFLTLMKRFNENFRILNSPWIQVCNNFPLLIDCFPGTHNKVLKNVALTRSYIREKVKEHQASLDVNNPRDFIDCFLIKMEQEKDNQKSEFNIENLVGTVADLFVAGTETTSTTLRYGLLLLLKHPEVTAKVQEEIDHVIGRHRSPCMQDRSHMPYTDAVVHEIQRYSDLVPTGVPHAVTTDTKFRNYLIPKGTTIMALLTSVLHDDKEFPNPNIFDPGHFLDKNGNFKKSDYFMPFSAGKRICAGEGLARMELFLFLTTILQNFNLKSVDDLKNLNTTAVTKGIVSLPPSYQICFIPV
The experiment in a line: Human liver microsomal CYP450 inhibition, CYP2C8. The note with it: for Type of inhibition, CYP2C8 (Paclitaxel): human liver microsomes; for IC50: human, pooled human liver microsomes, probe paclitaxel. (Liver microsomes are vesicles of endoplasmic reticulum, rich in cytochrome P450 enzymes.)
Protocol: (§1) In addition, the type of inhibition was also evaluated.
(§2) Enzyme kinetic studies of cytochrome P450 isozyme inhibition were conducted using human liver microsomes.
(§3) Probe substrate for 2C8 was paclitaxel, probe substrate for 2C9 was diclofenac and for 3A4 probe substrates were midazolam and testosterone.

The target of data set [2] is T2, CYP2C9 (Homo sapiens, UniProt P11712). The experiment in a line: Recombinant CYP450 inhibition, Luciferin-H, CYP2C9. In kind it is in vitro ADME. More on the design: from tissue; host or cells: pooled human liver microsomes. Particulars: highest concentration tested 10 μM. As to the method:
CYP2C9 inhibition was performed by incubating a luminogenic CYP450 substrate Luciferin-H with CYP2C9 and an NADPH regeneration system. Luminescence measured using a Fusion plate reader.

For data set [3], the target named is T3, CYP1A2 (Homo sapiens, UniProt P05177).
T3 sequence (P05177 1-516): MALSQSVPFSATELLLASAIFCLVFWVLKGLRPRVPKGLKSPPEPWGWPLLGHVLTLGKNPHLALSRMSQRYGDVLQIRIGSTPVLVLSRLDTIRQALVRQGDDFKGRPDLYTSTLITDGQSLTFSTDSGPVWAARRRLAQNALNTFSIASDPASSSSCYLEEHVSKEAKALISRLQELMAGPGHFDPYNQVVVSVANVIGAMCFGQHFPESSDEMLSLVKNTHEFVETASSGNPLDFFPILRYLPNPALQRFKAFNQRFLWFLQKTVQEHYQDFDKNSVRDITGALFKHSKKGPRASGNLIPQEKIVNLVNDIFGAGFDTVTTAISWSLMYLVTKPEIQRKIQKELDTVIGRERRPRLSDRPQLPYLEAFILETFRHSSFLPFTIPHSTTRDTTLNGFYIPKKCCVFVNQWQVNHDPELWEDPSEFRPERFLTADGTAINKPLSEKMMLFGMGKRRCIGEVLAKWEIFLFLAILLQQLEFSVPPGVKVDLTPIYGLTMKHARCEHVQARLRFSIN
The experiment in a line: Human liver microsomal CYP450 inhibition, CYP1A2. The note with it: for IC50, CYP1A2: human liver microsomes.
Protocol: as §1, §2

The target of data set [4] is T4, CYP2B6 (Homo sapiens, UniProt P20813).
T4 sequence (P20813 1-491): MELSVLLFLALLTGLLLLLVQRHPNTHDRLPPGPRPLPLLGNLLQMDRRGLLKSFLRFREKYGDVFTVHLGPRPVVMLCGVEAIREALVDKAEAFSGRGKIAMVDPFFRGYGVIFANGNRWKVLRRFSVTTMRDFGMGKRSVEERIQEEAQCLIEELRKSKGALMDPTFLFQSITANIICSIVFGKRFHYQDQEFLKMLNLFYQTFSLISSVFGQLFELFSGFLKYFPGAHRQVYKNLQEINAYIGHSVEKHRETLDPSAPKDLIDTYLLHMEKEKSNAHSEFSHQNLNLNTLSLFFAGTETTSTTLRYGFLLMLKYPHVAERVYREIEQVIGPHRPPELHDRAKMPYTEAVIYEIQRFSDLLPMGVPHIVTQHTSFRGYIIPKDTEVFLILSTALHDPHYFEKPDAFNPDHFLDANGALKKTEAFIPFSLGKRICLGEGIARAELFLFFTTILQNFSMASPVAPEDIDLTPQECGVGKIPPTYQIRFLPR
As to the kind of experiment: Recombinant CYP450 inhibition, fluorometric, CYP2B6. In kind it is in vitro ADME. More on the design: from tissue; host or cells: pooled human liver microsomes. The note with it: read-out: percentage of inhibition at the highest concentration tested, CYP2B6. As to the method: Compounds were assayed using recombinant human microsomal proteins with fluorometric substrates. Signal was measured with a Fusion plate reader utilizing the appropriate excitation and emission wavelength set to detect the specific metabolite: […]

Data set [5] can be described thus: Plasma protein binding by equilibrium dialysis, rat. Particulars: for fraction unbound: rat, read-out: Percentage Plasma Protein Binding, Rats. It counts as in vitro ADME. How it is done:
The in vitro plasma protein binding of compound I and compound III in rat, dog, monkey and human plasma was determined by equilibrium dialysis. Protein binding was assessed by equilibrium dialysis using rat, dog, monkey and human plasma. Samples were assayed by HPLC with LC-MS/MS detection. Plasma protein binding was high (>99%) for all species and for both compounds.

Data set [6] has as its system stimulated human primary blood mononuclear cells (PBMC). The experiment in a line: in vitro. Particulars: 3 days. As to the method: Cell viability was determined via MTT staining.
The target of data set [7] is T2, CYP2C9. As to the kind of experiment: Human liver microsomal CYP450 inhibition, CYP2C9. Particulars: for Type of inhibition, CYP2C9 (Diclofenac): human liver microsomes.
Protocol: as §1, §2, §3
Data set [8] deals with HIV-1 RT K103N mutant enzyme. It counts as biochemical. The note with it: Table 2; mutant vs wild-type. The text has this:
In Vitro Antiviral Activity Against Additional Mutant HIV RT Enzymes

The test system of data set [9] is CYP1A2 (activation of AhR in CYP1A2-DRE cells). The experiment in a line: CYP1A2 induction screen in CYP1A2-DRE cells. It counts as cell-based, human. The note with it: extent compared with TCDD, omeprazole, 2-acetylaminofluorene. The text has this:
The potential for in vitro induction of CYP3A4 was screened in DPX2 cells. The DPX2 cell line is a derivative of a human hepatocellular carcinoma cell line (HepG2) transformed with the human pregnane x receptor (PXR) and a reporter gene vector containing the enhancer region of CYP3A4. The potential for in vitro induction of CYP1A2 was screened in CYP1A2-DRE cells. The CYP1A2-DRE cell line is a stably transformed HepG2 cells with dioxin response elements (DRE) and reporter gene containing CYP1A2 promoter elements. The extent of CYP3A4 induction was determined by comparing the activation of PXR obtained with test article to that obtained with rifampicine (potent inducer), mifepristone (moderate inducer) and androstanol (weak inducer). The extent of CYP1A2 induction was determined by comparing the activation of the aryl hydrocarbon receptor (AhR) obtained with test article to that obtained with TCDD (potent inducer), omeprazole (moderate inducer), and 2-acetylaminofluorene (weak inducer).

The mark [10] stands for this setting: human, pooled human liver microsomes, probe diclofenac.

“Also recorded” adds a separate entry of the source. Like-named read-outs stand apart in the source and are kept apart here.

T2 sequence (P11712 whole entry, the tested form may be a part): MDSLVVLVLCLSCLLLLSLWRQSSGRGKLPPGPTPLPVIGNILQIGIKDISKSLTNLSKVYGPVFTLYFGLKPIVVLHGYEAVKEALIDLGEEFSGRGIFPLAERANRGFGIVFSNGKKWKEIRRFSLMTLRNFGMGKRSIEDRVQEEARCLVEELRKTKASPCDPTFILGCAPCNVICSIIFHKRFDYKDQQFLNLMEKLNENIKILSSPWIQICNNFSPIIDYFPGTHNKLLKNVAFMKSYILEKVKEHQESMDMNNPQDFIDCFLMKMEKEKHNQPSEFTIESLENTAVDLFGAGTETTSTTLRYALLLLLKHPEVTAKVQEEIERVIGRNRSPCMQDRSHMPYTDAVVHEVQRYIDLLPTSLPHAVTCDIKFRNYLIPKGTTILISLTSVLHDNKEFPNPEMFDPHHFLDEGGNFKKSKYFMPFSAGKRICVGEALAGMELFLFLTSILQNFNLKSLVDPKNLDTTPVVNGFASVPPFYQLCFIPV

The Ki is the equilibrium dissociation constant of an inhibitor or competing ligand from its target. Read a high Ki as a looser hold on the target. Broadly, the IC50 is the concentration needed to halve the response being measured. With `CO[P@](=O)(c1cc(C)cc(/C=C/C#N)c1)c1c(C(N)=O)[nH]c2ccc(Cl)c(F)c12` [Compound I, (2-Carbamoyl-5-chloro-4-fluoro-1H-indol-3-yl)-[3-((E)-2-cyano-vinyl)-5-methyl-phenyl]-(R)-phosphinic acid methyl ester], the values for the inhibition constant Ki in data set [1], in data set [7] and in [7] (setting [10]) were 1.1 µM, 1.4 µM and 1.45 µM, respectively. In addition, the “Type of inhibition, CYP2C8 (Paclitaxel)” value in data set [1] and in [1] (listed as compound I) was “competitive inhibition” in each case. Further, the half-inhibitory concentration (IC50) in data set [1] is below 10 µM; in [2] it was 8.4 ± 0.67 µM; in [3], above 20 µM; in [7] (setting [10]), below 10 µM. Also, the “IC50, CYP1A2” value in [3] is recorded as “not observed”. The inhibition at 20 µM in data set [4] (recombinant enzyme) came out at 21.6%. Also, in data set [5], the “Percentage Plasma Protein Binding, Rats” value was 99.1%. Further, the fraction unbound in data set [5] (plasma) is below 0.01. Also, in [6], the “SI values from cytotoxicity and activity data in PBMC” value is recorded as > 100,000. In addition, the “Type of inhibition, CYP2C9 (Diclofenac)” value in [7] and in data set [7] (listed as compound I) was “competitive inhibition” throughout. Besides, in data set [8], the “Fold Change, K103N” value is on record as 3.2 ± 3.5 fold.

`CO[P@](=O)(c1cc(C)cc(/C=C/C#N)c1)c1c(C(N)=O)[nH]c2ccc(Cl)cc12` [Compound III, (2-Carbamoyl-5-chloro-1H-indol-3-yl)-[3-((E)-2-cyano-vinyl)-5-methyl-phenyl]-(R)-phosphinic acid methyl ester]: the inhibition constant (Ki) was 0.66 µM in data set [1] and 0.93 µM in data set [7]. For the same compound, the “Type of inhibition, CYP2C8 (Paclitaxel)” value in data set [1] and in data set [1] (listed as compound III) was “competitive inhibition” in each case. The IC50 in [1] was below 10 µM; in [2], 6.85 ± 0.48 µM; in [3], above 20 µM; in [7] (setting [10]), below 10 µM. The “IC50, CYP1A2” value in data set [3] is “not observed”. For the same compound, in [4] (recombinant human CYP2B6 microsomal protein), the inhibition at 20 µM came to 22.9%. Further, the “Percentage Plasma Protein Binding, Rats” value in [5] is reported as 99.4%. Besides, the fraction unbound in [5] (rat plasma) was below 0.01. The “Induction, CYP1A2-DRE (CYP1A2)” value in [9] is “moderate inducers; also recorded: Not inducer (n = 1)”. Further, the “Type of inhibition, CYP2C9 (Diclofenac)” value in data set [7] and in [7] (listed as compound III) was “competitive inhibition” in each case.
